Experiment: solubility in gastric fluids
Format: physicochemical
Conditions: compared to other salts of the compound of formula I, i.e., HCl

solubility in gastric fluids: improved solubility
Structure (SMILES): C#Cc1cccc(-c2cc(=O)n(C)c3ccc(C(O)(c4ccc(Cl)cc4)c4cncn4C)cc23)c1.O=C(O)C(O)C(O)C(=O)O (stereo not shown) [6-[(4-chloro-phenyl)-hydroxy-(3-methyl-3H-imidazol-4-yl)-methyl]-4-(3-ethynyl-phenyl)-1-methyl-1H-quinolin-2-one, 2,3-dihydroxybutanedioate (1:1)]

From patent US6645982B2, “Crystal forms of 6-[(4-chloro-phenyl)-hydroxy-(3-methyl-3H-imidazol-4-yl)-methyl]-4-(3-ethynyl-phenyl)-1-methyl-1H-quinolin-2-one, 2,3-dihydroxybutanedioate salts and method of production” (Pfizer Inc, priority 2000, dated 2003)
